Experimental data published in US20250361230A1, “LATS Inhibitors and Uses Thereof” (The USA, as Represented by the Secretary, Dept. of Heath …, priority 2022, published 2025).
Each block holds one compound with its values, some of them ahead of it.

Assays:
[1] = molecular target: T1, LATS1 Kinase-NanoLuc fusion in HEK-293 cells (Homo sapiens, UniProt O95835); assay: NanoBRET target engagement assay in transfected HEK-293 cells, LATS1; assay type: cell-based; conditions: Table 28, NanoBRET, HEK-293 cells; read-out: LATS1 (Cellular) IC50
T1 construct: host or cells: HEK-293
T1 sequence (O95835 1-1130): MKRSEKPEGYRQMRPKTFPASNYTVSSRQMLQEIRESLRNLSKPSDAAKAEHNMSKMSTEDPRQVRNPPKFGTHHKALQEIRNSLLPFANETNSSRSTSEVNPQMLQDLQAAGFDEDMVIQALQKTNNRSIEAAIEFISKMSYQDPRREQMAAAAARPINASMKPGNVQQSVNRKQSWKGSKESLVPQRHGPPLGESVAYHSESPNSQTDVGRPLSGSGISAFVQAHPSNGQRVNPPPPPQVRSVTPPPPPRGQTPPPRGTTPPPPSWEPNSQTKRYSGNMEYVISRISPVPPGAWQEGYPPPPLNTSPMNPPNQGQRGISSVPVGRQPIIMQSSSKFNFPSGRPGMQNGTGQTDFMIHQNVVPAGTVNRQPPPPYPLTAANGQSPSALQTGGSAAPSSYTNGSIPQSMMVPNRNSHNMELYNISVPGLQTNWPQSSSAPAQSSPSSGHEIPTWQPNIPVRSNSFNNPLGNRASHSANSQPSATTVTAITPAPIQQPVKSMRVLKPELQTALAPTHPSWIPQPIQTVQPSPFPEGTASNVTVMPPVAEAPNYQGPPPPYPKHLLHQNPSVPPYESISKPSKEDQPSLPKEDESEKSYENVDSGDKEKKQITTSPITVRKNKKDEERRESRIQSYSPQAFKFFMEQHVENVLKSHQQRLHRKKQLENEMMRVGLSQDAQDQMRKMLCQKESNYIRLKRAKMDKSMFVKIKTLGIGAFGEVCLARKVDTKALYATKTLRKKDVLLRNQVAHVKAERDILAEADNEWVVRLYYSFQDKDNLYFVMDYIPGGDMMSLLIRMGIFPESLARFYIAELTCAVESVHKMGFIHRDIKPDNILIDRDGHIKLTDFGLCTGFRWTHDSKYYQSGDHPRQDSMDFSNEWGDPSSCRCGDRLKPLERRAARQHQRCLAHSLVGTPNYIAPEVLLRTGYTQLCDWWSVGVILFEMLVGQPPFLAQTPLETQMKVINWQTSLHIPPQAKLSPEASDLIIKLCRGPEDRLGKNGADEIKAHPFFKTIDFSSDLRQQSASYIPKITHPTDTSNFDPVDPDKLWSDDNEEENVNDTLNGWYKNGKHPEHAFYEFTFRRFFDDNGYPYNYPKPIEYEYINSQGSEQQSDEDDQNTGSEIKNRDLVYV
Source text: (§1) The NanoBRET™ assay measures kinase engagement in real time in the context of the intact cell. The assay uses a Kinase-NanoLuc® fusion vector expressing a kinase protein to which a luciferase tag has been added, a cell-permeant fluorescent NanoBRET™ tracer, a NanoLuc® substrate, and an extracellular NanoLuc® inhibitor. Upon expression of the luciferase-tagged kinase, cells will produce a strong BRET signal only in the presence of the NanoBRET™ tracer. The extracellular NanoLuc® inhibitor ensures that the BRET signal observed emanates only from live cells. Because the BRET signal has tight distance constraints, addition of the test compound will decrease the BRET signal if the compound competes with the NanoBRET™ tracer for binding to the kinase domain. Under the appropriate tracer conditions established by the manufacturer, quantitative intracellular affinity and relative potency can then be determined using Mass Action model equations.
(§2) HEK-293 cells were purchased from ATCC. FuGENEHD Transfection Reagent, Kinase-NanoLuc® fusion plasmids, Transfection Carrier DNA, NanoBRET™ Tracers and dilution buffer, NanoBRET™ Nano-Glo Substrate, Extracellular NanoLuc® Inhibitor were obtained from Promega.
(§3) Assays were conducted following Promega assay protocol with some modifications as described further below. HEK-293 Cells were transiently transfected with Kinase-NanoLuc® Fusion Vector DNA by FuGENE HD Transfection Reagent. Test compounds were delivered into 384 well assay plate by Echo 550 (Labcyte Inc, Sunnyvale, CA). Transfected cells were harvested and mixed with NanoBRET™ Tracer Reagent and dispensed into 384 well plates and incubated at 37° C. in 5% CO2 cell culture incubator for 1 hour. The NanoBRET™ Nano-Glo Substrate plus Extracellular NanoLuc® Inhibitor Solution were added into the wells of the assay plate and incubated for 2-3 minutes at room temperature. The donor emission wavelength (460 nm) and acceptor emission wavelength (600 nm) were measured in the EnVision plate reader. The BRET Ratios were calculated. BRET Ratio=[(Acceptor sample÷Donor sample)−(Acceptor no-tracer control÷Donor no-tracer control)]. The IC50 values of compounds were calculated with Prism GraphPad program.
(§4) • 1. Transient Transfection of HEK-293 Cells NanoLuc® Fusion Vector DNA • 1). Cultivate HEK-293 cells (70-80% confluence) appropriately prior to assay. Trypsinize and collect HEK-293 cells. • 2). Prepare lipid: DNA complexes as follows: • a. Prepare a […] solution of DNA in Opti-MEM™ without serum that consists of the following ratios of carrier DNA and DNA encoding NanoLuc® fusion. 9.0 µg/mL of Transfection Carrier DNA, […] of NanoLuc® fusion vector DNA and 1 mL of Opti-MEM™ without phenol red. Mix thoroughly. • b. Add 30 μl of FuGENE HD Transfection Reagent into each milliliter of DNA mixture to form lipid: DNA complex. • c. Mix by inversion 10 times. • d. Incubate at ambient temperature for 20 minutes to allow complexes to form. • 3). In a sterile, conical tube, mix 1 part of lipid: DNA complex with 20 parts of HEK-293 cells in suspension. Mix gently by inversion 5 times. • 4). Dispense cells+lipid: DNA complex into a sterile tissue culture dish and incubate for 22-24 hours. • 2. Addition of Test Compounds (dry plate shooting): Each test compound is delivered from the compound source plate to the wells of 384-well white NBS plate by Echo 550. • 3. Preparation of Cells with NanoBRET™ Tracer Reagent • 1). Remove medium from dish with transfected HEK-293 cells via aspiration, trypsinize and allow cells to dissociate from the dish. • 2). Neutralize trypsin using medium containing serum and centrifuge at 200× g for 5 minutes to pellet the cells. Adjust the cell density to 2×10^5 cells/mL in Opti-MEM™ without phenol red. • 3). Prepare Complete 20× NanoBRET™ Tracer Reagent with Tracer Dilution Buffer. • 4). Dispense one part of Complete 20× NanoBRET™ Tracer Reagent to 20 parts of cells in the tube. Mix gently by inversion 10 times. • 5). […]

[2] = molecular target: T2, AKT Kinase-NanoLuc fusion in HEK-293 cells (Homo sapiens, UniProt P31749); assay: NanoBRET target engagement assay in transfected HEK-293 cells, AKT; assay type: cell-based; conditions: Table 28, NanoBRET, HEK-293 cells; read-out: AKT1 (Cellular) IC50
T2 construct: host or cells: HEK-293
Source text: as §1, §2, §3, §4

T2 sequence (P31749 whole entry, the tested form may be a part): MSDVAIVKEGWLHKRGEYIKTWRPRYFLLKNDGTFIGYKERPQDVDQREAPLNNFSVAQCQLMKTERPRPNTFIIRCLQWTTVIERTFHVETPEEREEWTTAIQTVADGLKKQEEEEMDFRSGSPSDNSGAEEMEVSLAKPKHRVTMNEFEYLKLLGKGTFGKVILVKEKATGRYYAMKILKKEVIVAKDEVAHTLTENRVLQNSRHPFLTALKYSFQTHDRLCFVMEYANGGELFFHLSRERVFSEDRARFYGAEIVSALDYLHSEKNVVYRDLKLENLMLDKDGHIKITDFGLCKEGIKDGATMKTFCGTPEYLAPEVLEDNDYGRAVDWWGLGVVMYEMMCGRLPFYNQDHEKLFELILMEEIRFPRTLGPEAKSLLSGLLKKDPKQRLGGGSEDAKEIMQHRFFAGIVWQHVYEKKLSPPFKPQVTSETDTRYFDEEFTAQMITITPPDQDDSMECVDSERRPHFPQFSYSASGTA

SMILES: c1cc(-c2ccc(C3CC4CCC(C3)N4)cc2)c2cc[nH]c2n1 (stereo not drawn) [Compound 184, 4-(4-(8-azabicyclo[3.2.1]octan-3-yl)phenyl)-1H-pyrrolo[2,3-b]pyridine]
IC50 [1]: 57.4 µM | IC50 [2]: 27.4 µM

SMILES: Cc1cc(-c2ccnc3[nH]cc(F)c23)ccc1CN [Compound 211, (4-(3-fluoro-1H-pyrrolo[2,3-b]pyridin-4-yl)-2-methylphenyl) methanamine]
IC50 [1]: 6.37 µM | IC50 [2]: 22.6 µM

SMILES: NCc1ccc(-c2ccnc3[nH]cc(-c4ccccc4)c23)cc1-c1ccccc1 [Compound 219, (5-(3-phenyl-1H-pyrrolo[2,3-b]pyridin-4-yl)-[1,1′-biphenyl]-2-yl)methanamine]
IC50 [1]: 0.653 µM | IC50 [2]: > 50 µM

SMILES: Cc1cccc(-c2c[nH]c3nccc(-c4ccc(CN)cc4)c23)c1 [Compound 230, (4-(3-(m-tolyl)-1H-pyrrolo[2,3-b]pyridin-4-yl)phenyl) methanamine]
IC50 [1]: 5.47 µM | IC50 [2]: 0.752 µM

SMILES: Cc1cc(-c2ccnc3[nH]cc(Cl)c23)ccc1CN [Compound 254, (4-(3-chloro-1H-pyrrolo[2,3-b]pyridin-4-yl)-2-methylphenyl) methanamine]
IC50 [1]: 0.714 µM | IC50 [2]: 3.91 µM

SMILES: Cc1cc(-c2ccnc3[nH]ccc23)ccc1CN [Compound 266, (2-methyl-4-(1H-pyrrolo[2,3-b]pyridin-4-yl)phenyl) methanamine]
IC50 [1]: 6.71 µM | IC50 [2]: > 50 µM

SMILES: NCc1ccc(-c2ccnc3[nH]cc(F)c23)cc1 [Compound 275, (4-(3-fluoro-1H-pyrrolo[2,3-b]pyridin-4-yl)phenyl) methanamine]
IC50 [1]: 10.1 µM | IC50 [2]: 2.06 µM

SMILES: NCc1ccc(-c2ccnc3[nH]ccc23)cc1 [Compound 287, (4-(1H-pyrrolo[2,3-b]pyridin-4-yl)phenyl) methanamine]
IC50 [1]: 22.8 µM | IC50 [2]: > 50 µM

SMILES: Cc1cc(-c2ccnc3[nH]cc(F)c23)cc(F)c1[C@@]1(O)[C@H](C)CN(C)C[C@@H]1C [Compound 304, (3S,4s,5R)-4-(2-fluoro-4-(3-fluoro-1H-pyrrolo[2,3-b]pyridin-4-yl)-6-methylphenyl)-1,3,5-trimethylpiperidin-4-ol]
IC50 [1]: 0.0417 µM | IC50 [2]: 26 µM

SMILES: Cc1cc(-c2ccnc3[nH]cc(F)c23)cc(F)c1[C@@]1(O)[C@H](C)CN(C(C)C)C[C@@H]1C [Compound 305, (3S,4s,5R)-4-(2-fluoro-4-(3-fluoro-1H-pyrrolo[2,3-b]pyridin-4-yl)-6-methylphenyl)-1-isopropyl-3,5-dimethylpiperidin-4-ol]
IC50 [1]: 0.0622 µM | IC50 [2]: 29.4 µM

Second part, the compound after the results:

IC50 [1]: > 50 µM | IC50 [2]: > 50 µM
SMILES: CC1CC(c2ccc(-c3ccnc4[nH]ccc34)cc2)CC(C)N1 (stereo not drawn) [Compound 187, 4-(4-(2,6-dimethylpiperidin-4-yl)phenyl)-1H-pyrrolo[2,3-b]pyridine]

IC50 [1]: > 50 µM | IC50 [2]: 7.51 µM
SMILES: CC1(c2ccc(-c3ccnc4[nH]ccc34)cc2)CCNCC1 [Compound 201, 4-(4-(4-methylpiperidin-4-yl)phenyl)-1H-pyrrolo[2,3-b]pyridine]

IC50 [1]: 66.8 µM | IC50 [2]: > 50 µM
SMILES: COC(=O)c1c[nH]c2nccc(-c3ccc(CN)cc3)c12 [Compound 223, methyl 4-(4-(aminomethyl)phenyl)-1H-pyrrolo[2,3-b]pyridine-3-carboxylate]

IC50 [1]: 1.56 µM | IC50 [2]: 9.53 µM
SMILES: CC(C)(N)c1ccc(-c2ccnc3[nH]cc(F)c23)cc1 [Compound 238, 2-(4-(3-fluoro-1H-pyrrolo[2,3-b]pyridin-4-yl)phenyl)propan-2-amine]

IC50 [1]: 11.9 µM | IC50 [2]: 3.45 µM
SMILES: NCc1ccc(-c2ccnc3[nH]cc(-c4cccnc4)c23)cc1 [Compound 245, (4-(3-(pyridin-3-yl)-1H-pyrrolo[2,3-b]pyridin-4-yl)phenyl) methanamine]

IC50 [1]: 2.98 µM | IC50 [2]: 0.338 µM
SMILES: NCc1ccc(-c2ccnc3[nH]cc(-c4ccccc4)c23)cc1 [Compound 253, (4-(3-phenyl-1H-pyrrolo[2,3-b]pyridin-4-yl)phenyl) methanamine]

IC50 [1]: > 50 µM | IC50 [2]: 17.3 µM
SMILES: c1cc(-c2ccc3c(c2)CCNC3)c2cc[nH]c2n1 [Compound 267, 6-(1H-pyrrolo[2,3-b]pyridin-4-yl)-1,2,3,4-tetrahydroiso-quinoline]

IC50 [1]: > 50 µM | IC50 [2]: 14.5 µM
SMILES: c1cc(-c2ccc(C3CCCCN3)cc2)c2cc[nH]c2n1 (stereo not drawn) [Compound 271, 4-(4-(piperidin-2-yl)phenyl)-1H-pyrrolo[2,3-b]pyridine]

IC50 [1]: 2.83 µM | IC50 [2]: 4.14 µM
SMILES: NCc1ccc(-c2ccnc3[nH]cc(Cl)c23)cc1 [Compound 276, (4-(3-chloro-1H-pyrrolo[2,3-b]pyridin-4-yl)phenyl) methanamine]

IC50 [1]: 34.8 µM | IC50 [2]: > 50 µM
SMILES: NCc1ccc(-c2ccnc3[nH]ccc23)cc1C(F)(F)F [Compound 284, (4-(1H-pyrrolo[2,3-b]pyridin-4-yl)-2-(trifluoromethyl)phenyl) methanamine]

IC50 [1]: 1.35 µM | IC50 [2]: 39.9 µM
SMILES: COC(=O)c1c[nH]c2nccc(-c3cc(C)c([C@@]4(O)[C@H](C)CN(C5CCS(=O)(=O)CC5)C[C@@H]4C)c(F)c3)c12 [Compound 309, methyl 4-(4-((3S,4s,5R)-1-(1,1-dioxidotetrahydro-2H-thiopyran-4-yl)-4-hydroxy-3,5-dimethylpiperidin-4-yl)-3-fluoro-5-methylphenyl)-1H-pyrrolo[2,3-b]pyridine-3-carboxylate]
